This experiment addresses T1, estrogen receptor (Homo sapiens, UniProt P03372).
T1 construct: endogenous in cells; host or cells: ECC-1 cells
T1 sequence (P03372 1-595): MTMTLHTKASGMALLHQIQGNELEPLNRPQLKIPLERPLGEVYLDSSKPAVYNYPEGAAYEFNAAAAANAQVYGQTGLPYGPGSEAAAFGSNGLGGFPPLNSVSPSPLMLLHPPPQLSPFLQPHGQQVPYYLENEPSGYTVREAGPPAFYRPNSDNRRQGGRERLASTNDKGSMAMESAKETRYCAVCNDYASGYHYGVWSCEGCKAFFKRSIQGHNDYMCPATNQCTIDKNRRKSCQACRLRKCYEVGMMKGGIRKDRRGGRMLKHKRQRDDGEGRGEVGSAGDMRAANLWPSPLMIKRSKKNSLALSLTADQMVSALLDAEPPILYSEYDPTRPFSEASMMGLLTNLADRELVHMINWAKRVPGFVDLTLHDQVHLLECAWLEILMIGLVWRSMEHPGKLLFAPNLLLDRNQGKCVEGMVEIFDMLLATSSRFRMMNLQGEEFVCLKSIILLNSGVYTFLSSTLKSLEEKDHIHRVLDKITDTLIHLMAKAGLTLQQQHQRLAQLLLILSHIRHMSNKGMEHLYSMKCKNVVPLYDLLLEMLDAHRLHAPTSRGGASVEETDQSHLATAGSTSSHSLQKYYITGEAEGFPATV
The experiment is described as follows: AP assay (alkaline phosphatase activity in ECC-1 cells), agonist mode (absence of E2) and antagonist mode (presence of 500 pM E2). The format is cell-based. The note with it: 3 days, AP activity normalized to 500 pM E2 alone, agonist and antagonist mode combined. The gist of the method:
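Read-out is absorbance at 405 nm from p-nitrophenyl phosphate cleavage (40 min, 42 °C), expressed relative to 500 pM E2 alone. Compounds were applied to ECC-1 cells in hormone-depleted medium for 3 days, either alone (agonist) or alongside 500 pM E2 (antagonist).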
For the compound `CC1CN(Cc2nc3cc([C@@H]4c5[nH]c6ccccc6c5C[C@@H](C)N4CC(C)(C)F)ccc3o2)C1` [Compound I-76, 5-[(1R,3R)-2-(2-fluoro-2-methyl-propyl)-3-methyl-1,3,4,9-tetrahydropyrido[3,4-b]indol-1-yl]-2-[(3-methylazetidin-1-yl)methyl]-1,3-benzoxazole], the “Activity (estrogen receptor modulation, e.g., agonism and antagonism)” value (“Activity” below) was “+++ (estrogen receptor antagonism (i) with pIC50 greater than 7.5 and at least a 10% reduction in the E2-normalized signal in the AP assay (antagonist mode); and (ii) no more than 10% increase in E2-normalized signal in the AP assay (agonist mode))”.

Regarding `CC1CN(Cc2ccc3c([C@@H]4c5[nH]c6ccccc6c5C[C@@H](C)N4CC(C)(C)F)n[nH]c3c2)C1` [Compound I-11, (1S,3R)-2-(2-fluoro-2-methyl-propyl)-3-methyl-1-[6-[(3-methylazetidin-1-yl)methyl]-1H-indazol-3-yl]-1,3,4,9-tetrahydropyrido[3,4-b]indole], the “Activity” value was “++ (estrogen receptor antagonism having (i) between 10% and 80% increase in the E2-normalized signal in the AP assay (agonist mode) and (ii) between 10% and 80% reduction in the E2-normalized signal in the AP assay (antagonist mode))”. As to `COC1CN(Cc2cc3cc([C@@H]4c5[nH]c6ccccc6c5C[C@@H](C)N4CC(C)(C)F)ccc3[nH]2)C1` [Compound I-94, (1R,3R)-2-(2-fluoro-2-methyl-propyl)-1-[2-[(3-methoxyazetidin-1-yl)methyl]-1H-indol-5-yl]-3-methyl-1,3,4,9-tetrahydropyrido[3,4-b]indole], the “Activity” value was “+ (estrogen receptor agonism having (i) at least 80% increase in the E2-normalized signal in the AP assay (agonist mode) and (ii) no more than 80% reduction in the E2-normalized signal in the AP assay (antagonist mode))”. For the compound `C[C@@H]1Cc2c([nH]c3ccccc23)[C@@H](c2ccc3[nH]c(CN4CC(CF)C4)cc3c2)N1CC(C)(C)F` [Compound I-40, (1R,3R)-1-[2-[[3-(fluoromethyl)azetidin-1-yl]methyl]-1H-indol-5-yl]-2-(2-fluoro-2-methyl-propyl)-3-methyl-1,3,4,9-tetrahydropyrido[3,4-b]indole], the “Activity” value was “+++ (estrogen receptor antagonism (i) with pIC50 greater than 7.5 and at least a 10% reduction in the E2-normalized signal in the AP assay (antagonist mode); and (ii) no more than 10% increase in E2-normalized signal in the AP assay (agonist mode))”. Consider `CC1CN(Cc2cc3cc([C@@H]4c5[nH]c6ccccc6c5C[C@@H](C)N4CC(F)(F)CO)ccc3[nH]2)C1` [Compound I-46, 2,2-difluoro-3-[(1R,3R)-3-methyl-1-[2-[(3-methylazetidin-1-yl)methyl]-1H-indol-5-yl]-1,3,4,9-tetrahydropyrido[3,4-b]indol-2-yl]propan-1-ol], for which the “Activity” value was “+++ (estrogen receptor antagonism (i) with pIC50 greater than 7.5 and at least a 10% reduction in the E2-normalized signal in the AP assay (antagonist mode); and (ii) no more than 10% increase in E2-normalized signal in the AP assay (agonist mode))”.

With `C[C@@H]1Cc2c([nH]c3ccccc23)[C@@H](c2n[nH]c3cc(CN4CC5(CC(O)C5)C4)ccc23)N1CC(C)(C)F` [Compound I-31, 2-[[3-[(1S,3R)-2-(2-fluoro-2-methyl-propyl)-3-methyl-1,3,4,9-tetrahydropyrido[3,4-b]indol-1-yl]-1H-indazol-6-yl]methyl]-2-azaspiro[3.3]heptan-6-ol], the “Activity” value was “+ (estrogen receptor agonism having (i) at least 80% increase in the E2-normalized signal in the AP assay (agonist mode) and (ii) no more than 80% reduction in the E2-normalized signal in the AP assay (antagonist mode))”. The same measure for `C[C@@H]1Cc2c([nH]c3ccccc23)[C@@H](c2ccc3[nH]c(CN4CC(C(F)F)C4)cc3c2)N1CC(C)(C)F` [Compound I-100, (1R,3R)-1-[2-[[3-(difluoromethyl)azetidin-1-yl]methyl]-1H-indol-5-yl]-2-(2-fluoro-2-methyl-propyl)-3-methyl-1,3,4,9-tetrahydropyrido[3,4-b]indole]: “++ (estrogen receptor antagonism having (i) between 10% and 80% increase in the E2-normalized signal in the AP assay (agonist mode) and (ii) between 10% and 80% reduction in the E2-normalized signal in the AP assay (antagonist mode))”; for `C[C@@H]1Cc2c([nH]c3ccccc23)[C@@H](c2ccc3[nH]c(CN4CC5(CC(F)C5)C4)cc3c2)N1CC(C)(C)F` [Compound I-87, (1R,3R)-1-(2-((6-fluoro-2-azaspiro[3.3]heptan-2-yl)methyl)-1H-indol-5-yl)-2-(2-fluoro-2-methylpropyl)-3-methyl-2,3,4,9-tetrahydro-1H-pyrido[3,4-b]indole]: “+ (estrogen receptor agonism having (i) at least 80% increase in the E2-normalized signal in the AP assay (agonist mode) and (ii) no more than 80% reduction in the E2-normalized signal in the AP assay (antagonist mode))”. With `CC1CN(Cc2cc3sc([C@@H]4c5[nH]c6ccccc6c5C[C@@H](C)N4CC(C)(C)F)cc3[nH]2)C1` [Compound I-66, 2-[(1S,3R)-2-(2-fluoro-2-methyl-propyl)-3-methyl-1,3,4,9-tetrahydropyrido[3,4-b]indol-1-yl]-5-[(3-methylazetidin-1-yl)methyl]-4H-thieno[3,2-b]pyrrole], the “Activity” value is “+ (estrogen receptor agonism having (i) at least 80% increase in the E2-normalized signal in the AP assay (agonist mode) and (ii) no more than 80% reduction in the E2-normalized signal in the AP assay (antagonist mode))”. As for `C[C@@H]1Cc2c([nH]c3ccccc23)[C@@H](c2ccc3oc(CN4CCC45CC(F)(F)C5)cc3c2)N1CC(C)(C)F` [Compound I-58, (1R,3R)-1-[2-[(6,6-difluoro-1-azaspiro[3.3]heptan-1-yl)methyl]benzofuran-5-yl]-2-(2-fluoro-2-methyl-propyl)-3-methyl-1,3,4,9-tetrahydropyrido[3,4-b]indole], the “Activity” value was “+ (estrogen receptor agonism having (i) at least 80% increase in the E2-normalized signal in the AP assay (agonist mode) and (ii) no more than 80% reduction in the E2-normalized signal in the AP assay (antagonist mode))”.

Turning to `CC1CN(Cc2ccc3c([C@@H]4c5[nH]c6ccccc6c5C[C@@H](C)N4CC(C)(C)F)c[nH]c3c2)C1` [Compound I-6, (1R,3R)-2-(2-fluoro-2-methyl-propyl)-3-methyl-1-[6-[(3-methylazetidin-1-yl)methyl]-1H-indol-3-yl]-1,3,4,9-tetrahydropyrido[3,4-b]indole], the “Activity” value is “++ (estrogen receptor antagonism having (i) between 10% and 80% increase in the E2-normalized signal in the AP assay (agonist mode) and (ii) between 10% and 80% reduction in the E2-normalized signal in the AP assay (antagonist mode))”. Take `C[C@@H]1Cc2c([nH]c3ccccc23)[C@@H](c2ccc3[nH]c(CN4CC5(CCC5)C4)cc3c2)N1CC(C)(C)F` [Compound I-44, (1R,3R)-1-[2-(2-azaspiro[3.3]heptan-2-ylmethyl)-1H-indol-5-yl]-2-(2-fluoro-2-methyl-propyl)-3-methyl-1,3,4,9-tetrahydropyrido[3,4-b]indole]: the “Activity” value is “++ (estrogen receptor antagonism having (i) between 10% and 80% increase in the E2-normalized signal in the AP assay (agonist mode) and (ii) between 10% and 80% reduction in the E2-normalized signal in the AP assay (antagonist mode))”.

Source of the values: patent publication US20260355165A1, “2,3,4,9-TETRAHYDRO-1H-PYRIDO[3,4-B]INDOLE DERIVATIVES AS ESTROGEN RECEPTOR MODULATORS FOR THE TREATMENT OF CANCER” (Olema Pharmaceuticals, Inc., priority 2022, published 2026).
